Results on 14 compounds are retold here after patent US20040072871A1, “Novel thiophene derivatives, their process of preparation and the pharmaceutical compositions which comprise them” (priority 2002, published 2004).

The nature of data set [1]: Solubility remark on the isolated sodium salt. The format is physicochemical. The conditions noted are these: sodium salt form, remark in the synthesis. As to the method: 1.2 ml of water and 30.5 mg of lithium hydroxide (5 equivalents) are added to a solution of 118 mg of the compound obtained in the preceding Stage 1 in 1.5 ml of methanol. The reaction medium is stirred at 50° C. for 2 hours and then concentrated under reduced pressure. The residue obtained is taken up in ether and the insoluble material is removed. The ethereal solution, after several treatments with acid and base, results in the formation of a precipitate, which is isolated.

The target in data set [2] is MMP-12 (Homo sapiens, UniProt P39900). Briefly: In vitro inhibition of proteolysis of fluorogenic peptide substrate FP-1 by MMP-12. The format is biochemical. Conditions: substrate FP-1 10 μM, 20 minutes at ambient temperature, compounds tested 0.3 to 30 μM. As to the method: (§1) The inhibitory activity of the compounds of formula (I) with regard to metalloproteinase-12 is evaluated by testing the ability of the compounds of the invention to inhibit the proteolysis of a peptide substrate by MMP-12.
(§2) The inhibitory activity of a compound of formula (I) is expressed as IC50 value, which represents the concentration of inhibitor at which a degree of inhibition of the metalloproteinase of 50% is observed.
(§3) The reaction begins with the sequential addition of 41 μl of substrate FP-1 (final concentration of 10 μM) to a buffer solution of 50 mM of Tris-HCl and 10 mM of CaCl2, which comprises 5 mM of hydroxamic acid and 5 μl of the enzyme diluted in a 0.005% Brij-35 buffer solution. The microplates are incubated for 20 minutes at ambient temperature. The compounds of the invention are tested at concentrations varying from 0.3 to 30 μM.
(§4) The measurement of the amount of proteolysis of the peptide substrate is monitored by a measurement of absorbance at 405 nm using a microplate spectrophotometer, at ambient temperature. The IC50 values are calculated from curves in which the percentage of the catalytic activity relative to the control is represented on the […] and the concentration of inhibitor is represented on the Y axis.

In data set [3] the target is MMP-13 (Homo sapiens, UniProt P45452). Briefly: MMP-12 test adapted to MMP-13. Type of data set: biochemical. The procedure:
as §1, §2, §3, §4
The test described above for the inhibition of MMP-12 is adapted and used to determine the ability of the compounds of formula (I) to inhibit the metalloproteinases MMP-1, MMP-2, MMP-3, MMP-7, MMP-9, MMP-13 and MMP-14. […] More specifically, the compounds of the present invention generally show a selectivity with a factor of greater than 50 with respect to the metalloproteinases mentioned above, except towards MMP-13. Thus, the compounds of the present invention also show an inhibitory activity with regard to MMP-13, making it possible to also use the pharmaceutical compositions comprising one or more compounds of the invention in the treatment of pathologies related to activity of MMP-13. Mention may be made, among these pathologies, by way of indication and without implied limitation, of cancer, osetoporosis, osteoarthritis, arthritis, rheumatoid arthritis, atherosclerosis, multiple sclerosis, cardiac insufficiency, asthma and chronic obstructive pulmonary disease.

Counter-ions that a name gives are not always drawn.

Sequence of MMP-12 (P39900 106-470): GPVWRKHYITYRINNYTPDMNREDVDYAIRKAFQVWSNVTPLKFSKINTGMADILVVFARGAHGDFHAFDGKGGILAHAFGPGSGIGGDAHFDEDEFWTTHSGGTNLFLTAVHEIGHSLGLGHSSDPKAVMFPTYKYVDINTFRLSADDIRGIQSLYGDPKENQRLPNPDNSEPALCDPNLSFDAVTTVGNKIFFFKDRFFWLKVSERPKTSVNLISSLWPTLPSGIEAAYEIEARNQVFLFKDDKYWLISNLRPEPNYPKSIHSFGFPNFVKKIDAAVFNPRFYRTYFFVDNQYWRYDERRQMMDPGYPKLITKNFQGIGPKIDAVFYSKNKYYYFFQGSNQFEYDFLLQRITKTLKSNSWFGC

Regarding `O=C(O)Cc1ccc(-c2ccc(-c3csc(C(=O)NCCN4CCOCC4)c3)cc2)cc1.[Na+]` [Example 146, {4′-[5-(2-Morpholin-4-ylethylcarbamoyl)thiophen-3-yl]biphenyl-4-yl}-acetic acid, sodium salt], the solubility result in data set [1] is “very low solubility”. Take `O=C(NC[C@H]1CC[C@H](C(=O)O)CC1)c1cc(-c2ccc(-c3ccncc3)cc2)cs1` [Example 70, 4-[({4-[4-(Pyridinyl)phenyl]thien-2-yl}carboxamido)methyl]cyclo-hexanecarboxylic acid hydrochloride]: the values for the IC50 in data set [2] and in data set [3] were 0.022 µM and 0.285 µM, respectively. For `O=C(O)Cc1ccc(NC(=O)c2cc(-c3ccc(OC(F)(F)F)cc3)cs2)cc1` [Example 55, (4-{[4-(4-Trifluoromethoxyphenyl)thien-2-yl]carboxamido}-phenyl)acetic acid], the half-inhibitory concentration (IC50) was found to be 0.615 µM in data set [2] and 15.8 µM in data set [3].

For `O=C(NCCN1CCOCC1)c1cc(-c2ccc(-c3ccc(F)cc3)cc2)cs1` [Example 73, 4-[4-(4-Fluorophenyl)phenyl]-N-(2-morpholin-4-ylethyl)thiophene-2-carboxamide], the IC50 in data set [2] was 0.355 µM; in data set [3], 0.4 µM. As for `CC(=O)c1ccc(-c2ccc(-c3csc(C(=O)NCc4ccc(CC(=O)O)cc4)c3)cc2)c(O)c1` [Example 117, 2-{4-[({4-[4-(4-Acetyl-2-hydroxyphenyl)phenyl]thien-2-yl}-carboxamido)methyl]phenyl}acetic acid], the results for the IC50 in data set [2] and in data set [3] were 0.16 µM and 0.31 µM, respectively.

With `O=C(NCCN1CCOCC1)c1cc(-c2ccc(C3CCCCC3)cc2)cs1` [Example 21, 4-[4-(Cyclohexyl)phenyl]-N-(2-morpholin-4-ylethyl)thiophene-2-carboxamide], the IC50 came to 0.46 µM in data set [2] and 11 µM in data set [3]. In the case of `CS(=O)(=O)c1ccc(-c2ccc(-c3csc(C(=O)NCCN4CCOCC4)c3)cc2)cc1` [Example 75, 4-[4-(4-Methylsulphonylphenyl)phenyl]-N-(2-morpholin-4-ylethyl)thiophene2-carboxamide], the IC50 in data set [2] was 0.34 µM; in data set [3], 0.27 µM. For `O=C(NCCN1CCOCC1)c1cc(-c2ccc(-c3cccc(O)c3)cc2)cs1` [Example 74, 4-[4-(3-Hydroxyphenyl)phenyl]-N-(2-morpholin-4-ylethyl)thiophene-2-carboxamide], in that order: 0.465 µM and 6.25 µM.

Regarding `O=C(O)Cc1ccc(CNC(=O)c2cc(-c3ccc(Oc4ccccc4)cc3)cs2)cc1` [Example 81, 2-[4-({[4-(4-Phenoxyphenyl)thien-2-yl]carboxamido}methyl)phenyl]-acetic acid], the IC50 in data set [2] was determined as 0.5 µM; in data set [3] it was 3.7 µM. For `N#CCc1ccc(-c2ccc(-c3csc(C(=O)NCc4ccc(CC(=O)O)cc4)c3)cc2)cc1` [Example 109, 2-[4-({[4-(4′-Cyanomethyl-4-biphenyl)thien-2-yl]carboxamido}-methyl)phenyl]acetic acid] the same measures were 0.165 µM and 0.4 µM. For `CC(=O)c1ccc(-c2ccc(-c3csc(C(=O)NCCN4CCOCC4)c3)cc2)cc1` [Example 72, 4-[4-(4-Acetylphenyl)phenyl]-N-(2-morpholin-4-ylethyl)thiophene-2-carboxamide], in that order: 0.057 µM and 0.13 µM. `CC(=O)c1ccc(-c2ccc(-c3csc(C(=O)NCc4ccc(C(=O)O)cn4)c3)cc2)cc1` [Example 135, 6({[4-(4′-Acetyl-4-biphenyl)thien-2-yl]carboxamido}methyl)-nicotinic acid]: the IC50 is 0.042 µM in data set [2] and 0.08 µM in data set [3]. For “3-[4-({[4-(4-Trifluoromethoxyphenyl)thien-2-yl]carboxamido}-methyl)phenyl]propanoic acid [Example 63]”, the values for the IC50 in data set [2] and in data set [3] were 0.49 µM and 3.8 µM, respectively. `O=C(O)CC[C@H]1CC[C@H](NC(=O)c2cc(-c3ccc(OC(F)(F)F)cc3)cs2)CC1` [Example 129, trans-3-(4-{[4-(4-Trifluoromethoxyphenyl)thien-2-yl]-carboxamido}cyclohexyl)propanoic acid]: the IC50 in data set [2] stood at 0.78 µM; in data set [3] it was 6.2 µM.

In general, IC50 refers to the concentration at which inhibition is half-maximal.
